Experimental data taken from patent US20060292158A1, “Method for the treatment of cancer using a novel pharmaceutical composition containing at least one dolastatin 10 derivative” (priority 2004, published 2006).
Structures can show the parent of a compound that is named as a salt. Where two headings read alike, the source gives them in different places.

Key:
[1] = system: NCI-H460 human large cell lung carcinoma xenograft; assay: Antitumor activity in NCI-H460 subcutaneous xenograft in athymic nude mice, combination with cisplatin (Example 4); format: in vivo; settings: day 12
Description: The NCI-H460 human large cell lung carcinoma cell line was purchased from American Type Culture Collection (MD, U.S.A.). The cells were cultured in RPMI-1640 medium (cat. # R8758, lot 12K2310, exp 01/03; lot 82K2497, exp 08/03; Sigma-Aldrich corporation, MO, U.S.A.) supplemented with 10% (v/v) fetal bovine serum (cat. # 047115, lot # 31300124; Roche Diagnostics KK, Tokyo, Japan).
Sixty of 5-week-old male athymic nude mice (BALB/c nu/nu) were purchased from Charles River Japan, Inc. (Yokohama, Japan). All mice were kept for 8 days in the animal facility of Kamakura Research Laboratories of Chugai Pharmaceutical Co., Ltd. before subjection to the experiment.
(§1) The title compound was synthesized at Kamakura Research Laboratories of Chugai Pharmaceutical Co., Ltd. CDDP (Randa™, lot # 924150) was obtained from Nippon Kayaku Co., Ltd. (Tokyo, Japan). The title compound was dissolved in dimethyl sulfoxide (DMSO) and diluted into 2.5 % DMSO solution with saline (for Injection; Ohtsuka Pharmaceutical Industry Co., Ltd., Tokushima, Japan) at the date of administration. CDDP was diluted with saline at the date of administration.
The in vivo evaluation procedure for anticancer drugs was based on the methods described by Plowman, et al. (1997) for xenograft models. See, “Anticancer Drug Development Guide: Preclinical Screening, Clinical Trials, and Approval, Teicher B (ed) pp. 101-125, specifically Chap. 6, “Human Tumor Xenograft Models in NCI Drug Development”, hereby incorporated by reference. A single cell suspension of NCI-H460 (5.6×10^6 cells per mouse) was inoculated subcutaneously into the right flank of each mouse. The tumor volume was estimated by using the equation ab^2/2, where a and b represent tumor length and width, respectively. Mice bearing tumors of between 150 and 245 mm^3 were selected on day 7 after tumor inoculation and were randomly divided into 8 groups, consisting of 5 mice each. Mean tumor volume and body weight of the selected mice were 187 mm3 and 24.3 g, respectively. Drug administration was initiated after mice were divided into groups. The title compound (2 mg/kg or 3 mg/kg), CDDP (5 mg/kg or 6.7 mg/kg) and each vehicle were administered intravenously. Tumor volume and body weight of each mouse were measured twice a week. […] Tumor growth inhibition was calculated using the equation (1-ΔT/ΔC)×100, where ΔT represents the difference in tumor volume from the initial treatment date of the treated group and ΔC represents the difference in tumor volume from the initial treatment date of the vehicle group.

[2] = system: HT-29 human colorectal adenocarcinoma xenograft; format: in vivo; settings: day 31
Description: The HT-29 human colorectal adenocarcinoma cell line was purchased from American Type Culture Collection (Rockville, MD, U.S.A.). The cells were cultured in McCoy's 5a medium (Sigma-Aldrich Corporation, MO, U.S.A.) supplemented with 10% (v/v) fetal bovine serum (Roche Diagnostics KK, Tokyo, Japan).
Sixty of 5-week-old male athymic nude mice (BALB/c nu/nu) were purchased from Charles River Japan, Inc. (Yokohama, Japan). All mice were kept for 9 days in the animal facility of Kamakura Research Laboratories of Chugai Pharmaceutical Co., Ltd. before subjection to the experiment.
Capecitabine was dissolved by the 40 milli mol/L citrate buffered-5% Gum arabic solution (pH 6.0; Chugai Pharmaceutical Co., Ltd.).
The in vivo evaluation procedure for anticancer drugs was based on the methods described by Plowman, et al. (1997) for xenograft models. See, “Anticancer Drug Development Guide: Preclinical Screening, Clinical Trials, and Approval, Teicher B (ed) pp. 101-125, specifically Chap. 6, “Human Tumor Xenograft Models in NCI Drug Development”, hereby incorporated by reference. A single cell suspension of HT-29 (1.1×10^7 cells per mouse) was inoculated subcutaneously into the right flank of each mouse. The tumor volume was estimated by using the equation ab^2/2, where a and b represent tumor length and width, respectively. Mice bearing tumors of between 172 and 282 mm^3 were selected on day 10 after tumor inoculation and were randomly divided into 7 groups, consisting of 6 mice each. Mean tumor volume and body weight of the selected mice were 217 mm^3 and 25.0 g respectively. Drug administration was initiated after mice were divided into groups. […] Capecitabine (359 mg/kg or 539 mg/kg) and its vehicle were administered orally. Tumor volume and body weight of each mouse were measured twice a week. […] Tumor growth inhibition was calculated using the equation (1-ΔT/ΔC)×100, where ΔT represents the difference in tumor volume from the initial treatment date of the treated group and ΔC represents the difference in tumor volume from the initial treatment date of the vehicle group.

[3] = Maximum tolerated dose (neither lethality nor more than 20% body weight loss) in mice; settings: BALB/c nu/nu (athymic nude), mouse, in vivo, dose with neither lethality nor more than 20% body weight loss; for MTD at 14 days: oral
Excerpt: The in vivo evaluation procedure for anticancer drugs was based on the methods described by Plowman, et al. (1997) for xenograft models. See, “Anticancer Drug Development Guide: Preclinical Screening, Clinical Trials, and Approval, Teicher B (ed) pp. 101-125, specifically Chap. 6, “Human Tumor Xenograft Models in NCI Drug Development”, hereby incorporated by reference.
See, “Anticancer Drug Development Guide: Preclinical Screening, Clinical Trials, and Approval, Teicher B (ed) pp. 101-125, specifically Chap. 6, “Human Tumor Xenograft Models in NCI Drug Development”, hereby incorporated by reference.
The in vivo evaluation procedure for anticancer drugs was based on the methods described by Plowman, et al. (1997) for xenograft models. See, “Anticancer Drug Development Guide: Preclinical Screening, Clinical Trials, and Approval, Teicher B (ed) pp. 101-125, specifically Chap.

[4] = system: Calu-6 human lung cancer xenograft; format: in vivo; settings: 80 mg/kg (2/3 MTD) i.v. weekly x2; day 32
Description: The Calu-6 human lung carcinoma cell line was purchased from American Type Culture Collection (MD, U.S.A.). The cells were cultured in Eagle's MEM (Sigma-Aldrich corporation, MO, U.S.A.) supplemented with 0.1 milli mol/L Non-essential amino acids (Invitrogen corporation, CA, U.S.A.), 1 milli mol/L sodium pyruvate (Invitrogen corporation, CA, U.S.A.), and 10% (v/v) fetal bovine serum (Roche Diagnostics KK, Tokyo, Japan).
60 of 5-week-old male athymic nude mice (BALB/c nu/nu) were purchased from Charles River Japan, Inc. (Yokohama, Japan). All mice were kept for 8 days in the animal facility of Kamakura Research Laboratories of Chugai Pharmaceutical Co., Ltd. before subjection to the experiment.
as §1, with “Irinotecan (Topotecin™, lot. No. EQAZF13)” for “CDDP (Randa™, lot # 924150)”, “Daiichi Pharmaceutical” for “Nippon Kayaku”, “(For” for “(for”, “Irinotecan” for “CDDP”
The in vivo evaluation procedure for anticancer drugs was based on the methods described by Plowman, et al. (1997) for xenograft models. See, “Anticancer Drug Development Guide: Preclinical Screening, Clinical Trials, and Approval, Teicher B (ed) pp. 101-125, specifically Chap. 6, “Human Tumor Xenograft Models in NCI Drug Development”, hereby incorporated by reference. A single cell suspension of Calu-6 (5.7×10^6 cells per mouse) was inoculated subcutaneously into the right flank of each mouse. The tumor volume was estimated by using the equation ab^2/2, where a and b represent tumor length and width, respectively. Mice bearing tumors of between 181 and 326 mm^3 were selected on day 11 after tumor inoculation and were randomly divided into 10 groups, consisting of 5 mice each. […] Drug administration was initiated after mice were randomized and divided into groups. The tide compound (0.375 mg/kg; 0.75 mg/kg; 1.5 mg/kg or 3 mg/kg), irinotecan (80 mg/kg) and each vehicles were administered intravenously. Tumor volume and body weight of each mouse were measured twice a week. […] Tumor growth inhibition was calculated by using the equation (1-ΔT/ΔC)×100, where ΔT represents the tumor volume difference from the initial treatment date of treated group and ΔC represents the tumor volume difference from the initial treatment date of vehicle group.

Question: Which “reduction of tumor growth” value ([1]; 5 mg/kg (1/2 MTD) i.v. on first day) does the source give for `N.N.[Cl][Pt][Cl]` [CDDP, cis-diamminedichloroplatinum, reference compound] here?
Answer: 56%

Question: And the “reduction of tumor growth” value ([1]; 6.7 mg/kg (2/3 MTD) i.v. on first day)?
Answer: 66%

Question: What does the source list for `CCCCCOC(=O)Nc1nc(=O)n([C@@H]2O[C@H](C)[C@@H](O)[C@H]2O)cc1F` [capecitabine, reference compound]?
Answer: reduction of tumor growth ([2]; 359 mg/kg (2/3 MTD) p.o. daily for 14 days): 32%; reduction of tumor growth ([2]; 539 mg/kg (MTD) p.o. daily for 14 days): 50%; MTD at 14 days ([3]; 359 mg/kg): 359 mg/kg; MTD at 14 days [3]: 539 mg/kg

Question: For `CCc1c2c(nc3ccc(OC(=O)N4CCC(N5CCCCC5)CC4)cc13)-c1cc3c(c(=O)n1C2)COC(=O)[C@]3(O)CC` [irinotecan, irinotecan hydrochloride, reference compound], which MTD [3] is on record?
Answer: 120 mg/kg

Question: What about the tumor growth inhibition [4] of the same compound?
Answer: 68%
